{
  "source": "patent US20250082605A1",
  "about": "(priority 2016, published 2025)",
  "key": {"TRPV1": {"molecular_target": "TRPV1 (Rattus norvegicus, UniProt O35433)", "sequence (O35433 whole entry)": "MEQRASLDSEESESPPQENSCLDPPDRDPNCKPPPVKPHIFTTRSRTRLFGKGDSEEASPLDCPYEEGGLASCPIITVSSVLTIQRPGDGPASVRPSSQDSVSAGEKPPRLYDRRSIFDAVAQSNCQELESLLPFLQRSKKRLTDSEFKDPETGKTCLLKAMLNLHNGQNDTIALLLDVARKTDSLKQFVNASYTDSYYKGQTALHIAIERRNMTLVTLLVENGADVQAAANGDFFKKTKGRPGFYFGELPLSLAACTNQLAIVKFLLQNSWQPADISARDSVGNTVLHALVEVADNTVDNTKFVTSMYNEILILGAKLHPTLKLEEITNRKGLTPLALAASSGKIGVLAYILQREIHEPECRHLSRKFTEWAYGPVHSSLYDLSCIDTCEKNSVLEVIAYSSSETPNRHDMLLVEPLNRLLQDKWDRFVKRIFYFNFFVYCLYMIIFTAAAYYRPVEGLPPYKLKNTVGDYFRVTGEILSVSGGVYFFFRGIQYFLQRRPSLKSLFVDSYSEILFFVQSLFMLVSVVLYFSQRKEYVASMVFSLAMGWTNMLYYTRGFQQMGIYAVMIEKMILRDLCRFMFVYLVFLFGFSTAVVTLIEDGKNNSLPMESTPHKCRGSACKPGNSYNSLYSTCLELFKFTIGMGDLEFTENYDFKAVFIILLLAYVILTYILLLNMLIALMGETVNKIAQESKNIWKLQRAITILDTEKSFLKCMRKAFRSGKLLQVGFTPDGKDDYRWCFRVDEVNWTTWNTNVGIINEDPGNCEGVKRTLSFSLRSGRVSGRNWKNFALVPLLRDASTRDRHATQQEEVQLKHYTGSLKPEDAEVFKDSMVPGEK", "assay": "Isolectin B4 (IB4) and TRPV1 expression in DRG neurons after epidural RTX", "assay_type": "in vivo", "parameters": "from tissue; host or cells: rat dorsal root ganglion (DRG) neurons", "conditions": "epidural RTX vs vehicle-only, FIG. 3A", "procedure": "(§1) For epidural application of RTX, a small midline incision was made in the region of the T13-L1 thoracic vertebrae. Following dissection of the superficial muscles, two small holes (approximately 2 mm by 2 mm) were made in the left and right sides of the T13 vertebra. A polyethylene catheter (PE-10) was inserted into the […] via the left hole and gently advanced about 5.5-6 cm to the left T1 level at which the first injection (6 μg/mL, 10 μL) was made at a very slow speed to minimize the diffusion of RTX. Then the catheter was pulled back about 0.5 cm to left T2, T3, and T4, respectively, to perform serial injections (10 μL each) in each segment. Then the catheter was withdrawn and the same injection was repeated on the right side. A silicone gel was used to seal the hole in the T13 vertebra. The skin overlying the muscle was closed with a 3-0 polypropylene suture. Simple interrupted sutures were used to close the skin.\n(§2) FIGS. 3A-4B show experimental results for a rat study in accordance with an embodiment of the present application."}, "C fiber afferents": {"system": "C fiber afferents", "assay": "Staining of the dorsal horn of the spinal cord at T2 for TRPV1, Substance P and IB4", "assay_type": "in vivo, rat", "procedure": "as §1\nNeurons in the dorsal horn of the spinal cord that express SP were ablated by RTX. IB4 is an indicator of small diameter afferent nerves and SP is an indicator of neuroinflammation."}, "early hypertensive rats": {"system": "early hypertensive rats", "assay": "Arterial pressure in early hypertensive rat model after epidural RTX", "assay_type": "in vivo", "procedure": "Open circles indicate the control population, while filled circles indicate the RTX-treated population. Epidural administration of RTX was by injection on Day 0, as indicated by the arrow on the graph.\nThe hypertensive model is a genetic spontaneously hypertensive rat (SHR). The early hypertension rats were treated at 8 weeks at age, reflecting a population in which blood pressure was only minimally elevated at the beginning of the study. Examples 10 and 11 illustrate treatment of subjects with hypertension and pre-hypertension (i.e., mild hypertension or early hypertension) and without induced CHF. For these subjects, epidural administration of RTX may be associated with an absolute reduction in blood pressure. Additionally, subjects treated with RTX may show less increase in blood pressure over time, as compared to a control population. Or, treatment may be associated with both an absolute reduction in pressure and lessened increase over time.\nFIG. 13A-13C show experimental results in a study using an early-hypertensive rat model. […] Open circles indicate the control population, while filled circles indicate the RTX-treated population. Epidural administration of RTX was by injection on Day 0, as indicated by the arrow on each graph."}, "[1]": {"system": "cardiac sympathetic afferent reflex (CSAR)", "assay": "Response to activation of the CSAR (MAP, RSNA) over 26 weeks after epidural or epicardial RTX", "assay_type": "in vivo, rat", "procedure": "(§3) The following Examples 1 through 9 discuss data from rats with induced CHF. The Examples show many improved indicators associated with RTX treatment in CHF subjects. The rat models provide for comparison of epidural administration of RTX against epicardial administration of RTX and against various controls. For the epicardial data, RTX was administered directly to the epicardium by swab during open surgery contemporaneously with induced myocardial infarction (coronary artery ligation).\nas §1, §2"}, "TRPV1 afferents": {"system": "TRPV1 afferents", "assay": "Immunofluorescence study for TRPV1 afferents after L2-L5 RTX administration", "assay_type": "in vivo, rat", "source_text": "Additionally, an immunofluorescence study for TRPV1 afferents was made following administration at the L2-L5 levels. […] Within the T1-T5 levels, no reduction in TRPV1 afferents was shown following the L2-L5 injection. Within the heart, TRPV1 fluorescence remained on the surfaces of the myocardium and within the cardiac tissue."}, "rats with induced CHF [2]": {"system": "rats with induced CHF", "assay": "Mean arterial pressure over 24 hours in CHF rats", "assay_type": "in vivo, rat", "conditions": "epidural RTX, 10-12 weeks after myocardial infarction", "procedure": "The study was conducted 10-12 weeks after the myocardial infarction.\nas §1\nFor each population, n=6-8. The study was conducted for a 10-12 week period after the myocardial infarction. […] Treatment with epidural RTX corresponds to a lower MAP for the CHF rat population."}, "rats with induced CHF [3]": {"system": "rats with induced CHF", "assay": "End-systolic and end diastolic pressure volume relationship in CHF rats", "assay_type": "in vivo, rat", "source_text": "In each case, administration of vehicle or RTX and vehicle was epidural.\n(§4) In each case, administration of vehicle or RTX and vehicle was epidural. […] Both significance measures were at the P<0.05 level.\nas §3, §1\nIn each case, administration of vehicle or RTX and vehicle was epidural. […] CHF corresponds to a reduction in ESPVR, with appeared unaffected by epidural RTX."}, "rats with induced CHF [4]": {"system": "rats with induced CHF", "assay": "Cardiac and renal sympathetic nerve activity (CSNA, RSNA) in CHF rats", "assay_type": "in vivo, rat", "conditions": "for cardiac sympathetic nerve activity (CSNA): CHF", "procedure": "as §4, §3, §1\nIn each case, administration of vehicle or RTX plus vehicle was epidural. […] Both significance measures were at the P<0.05 level."}, "rats with induced CHF [5]": {"system": "rats with induced CHF", "assay": "Long-term survival of rats with induced CHF over 28 weeks", "assay_type": "in vivo, rat", "procedure": "as §3, §1\nFIG. 7 depicts the survival rate of rats with induced chronic heart failure with and without RTX treatment. In FIG. 7A, the treatment was epicardial. In FIG. 7B the treatment was epidural. […] In particular, without RTX treatment, seven of ten rats died during the 28-week period. But only two of nine rats with RTX treatment died during the same period."}, "[6]": {"conditions": "epidural RTX at T1-T4 DRG levels"}, "[7]": {"conditions": "vehicle-only continued to increase"}, "[8]": {"conditions": "epidural RTX vs vehicle, weeks 1, 5-6, 9-11, 24-26, FIG. 3B"}},
  "data": [
    {"smiles": "C=C(C)[C@]12C[C@@H](C)[C@@]34O[C@](Cc5ccccc5)(O[C@@H]1[C@@H]3C=C(COC(=O)Cc1ccc(O)c(OC)c1)C[C@]1(O)C(=O)C(C)=C[C@@H]41)O2", "note": "[RTX, resiniferatoxin]", "values": [
      {"measurement": "isolectin B4 (IB4) and TRPV1 expression in DRG neurons", "setting": "TRPV1", "result": "reduction"},
      {"measurement": "expression of TRPV1 protein", "setting": "C fiber afferents; dorsal horn at T2, RTX vs control, FIG. 4", "result": "reduced expression"},
      {"measurement": "ablation of SP-containing C fiber afferents (peptidergic) projecting to the dorsal horn", "setting": "C fiber afferents; [6]", "result": "ablated almost all"},
      {"measurement": "ablation of isolectin B4 (IB4)-positive C fiber afferents (non-peptidergic) projecting to the dorsal horn", "setting": "C fiber afferents; [6]", "result": "a large portion"},
      {"measurement": "MAP following treatment", "setting": "early hypertensive rats", "result": "125-130 mmHg"},
      {"measurement": "day from which MAP was significantly lower than vehicle-only", "setting": "early hypertensive rats", "result": 20, "unit": "days"},
      {"measurement": "day from which diastolic arterial pressure was significantly lower than control", "setting": "early hypertensive rats", "result": "~22", "unit": "days"},
      {"measurement": "day from which systolic arterial pressure was significantly lower than control", "setting": "early hypertensive rats", "result": "~23", "unit": "days"},
      {"measurement": "mean arterial pressure (MAP) after RTX injection", "setting": "early hypertensive rats; epidural RTX Day 0", "result": "decreased slightly"},
      {"measurement": "systolic arterial pressure within a few days after RTX injection", "setting": "early hypertensive rats; then returned and maintained", "result": "decreased slightly"},
      {"measurement": "diastolic arterial pressure over the study period", "setting": "early hypertensive rats; [7]", "result": "remained approximately steady"},
      {"measurement": "mean arterial pressure (MAP) over the period of the study", "setting": "early hypertensive rats; [7]", "result": "approximately steady"},
      {"measurement": "duration of cardiac sympathetic afferent ablation", "setting": "[1]; epicardial RTX administration", "result": "3-4 months"},
      {"measurement": "mean arterial pressure (MAP) response to activation of the CSAR", "setting": "[1]; [8]", "result": "substantial decrease"},
      {"measurement": "renal sympathetic nerve activity (RSNA) response to activation of the CSAR", "setting": "[1]; [8]", "result": "substantial decrease"},
      {"measurement": "TRPV1 afferents in DRG neurons, L2-L5 levels", "setting": "TRPV1 afferents", "result": "elimination of most TRPV1 afferents"},
      {"measurement": "TRPV1 afferents, L1 level", "setting": "TRPV1 afferents", "result": "many TRPV1 afferents remained"},
      {"measurement": "TRPV1 afferents, T1-T5 levels", "setting": "TRPV1 afferents", "result": "no reduction"},
      {"measurement": "TRPV1 fluorescence in the heart (surfaces of the myocardium and cardiac tissue)", "setting": "TRPV1 afferents", "result": "remained"},
      {"measurement": "mean arterial pressure (MAP) over 24 hours", "setting": "rats with induced CHF [2]", "result": "lower MAP"},
      {"measurement": "end diastolic pressure volume relationship (EDPVR), difference", "setting": "rats with induced CHF [3]; CHF + epidural RTX vs population without CHF", "result": "not statistically significant"},
      {"measurement": "end diastolic pressure volume relationship (EDPVR)", "setting": "rats with induced CHF [3]; CHF + epidural RTX vs untreated CHF", "result": "statistically significantly less"},
      {"measurement": "end-systolic pressure volume relationship (ESPVR), CHF-related reduction", "setting": "rats with induced CHF [3]; epidural RTX", "result": "unaffected"},
      {"measurement": "CHF-induced increase in basal cardiac sympathetic tone (CSNA and RSNA)", "setting": "rats with induced CHF [4]; CHF + epidural RTX", "result": "not exhibited"},
      {"measurement": "basal cardiac sympathetic tone, difference", "setting": "rats with induced CHF [4]; CHF + epidural RTX vs non-CHF population", "result": "not statistically significant"},
      {"measurement": "cardiac sympathetic nerve activity (CSNA)", "setting": "rats with induced CHF [4]; epicardial RTX vs untreated CHF", "result": "substantially reduced"},
      {"measurement": "cardiac sympathetic nerve activity (CSNA)", "setting": "rats with induced CHF [4]; epidural RTX vs epicardial RTX", "result": "substantially lower"},
      {"measurement": "cardiac sympathetic nerve activity (CSNA)", "setting": "rats with induced CHF [4]; epidural RTX vs untreated CHF", "result": "substantially reduced"},
      {"measurement": "survival improvement, epidural versus epicardial treatment", "setting": "rats with induced CHF [5]; 28 weeks", "result": "roughly comparable improvement"},
      {"measurement": "rats that died during the 28-week period", "setting": "rats with induced CHF [5]; epidural RTX at T1-T4, n=9 (without RTX seven of ten)", "result": "two of nine"},
      {"measurement": "long-term survival rate", "setting": "rats with induced CHF [5]; epidural RTX vs no RTX, 28 weeks", "result": "significantly higher"}
    ]}
  ]
}
